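Compound exposure: 48 hours, 5 concentrations, 96-well plates. TGI denotes the concentration required for complete inhibition of growth.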

This passage reports TGI results from PubChem BioAssay (NCI).

Holding throughout (assay): NCI-60 cell line screen, 48 h
Test [1] concerns HS 578T breast.
Test [2] has as its system CCRF-CEM leukemia.
Test [3] has as its system SF-268 CNS.
Test [4] deals with SW-620 colon.
Test [5] concerns SR leukemia.
For test [6], the system named is SK-OV-3 ovarian.
Test [7] has as its system OVCAR-8 ovarian.
Test [8] relates to NCI-H226 lung.
For test [9], the system named is SF-539 CNS.
The test system of test [10] is 786-0 renal.

As for `COc1ccc2c3c([nH]c2c1)CCN(CCCC(=O)c1ccc(F)cc1)C3`, the TGI in test [1] was found to be 31.7 µM; in [2] it was 54.9 µM; in [3] it was 34.1 µM; in [4], 32.8 µM; in [5], 36.6 µM; in test [6] it was 36.6 µM. Moreover, the TGI in test [7] amounted to 29.1 µM; in test [8], 33.2 µM; in test [9] it was 22.3 µM; in test [10] it was 27.1 µM.

Take `O=c1oc2ccccc2cc1-c1cn2c(n1)sc1ccccc12`: the TGI in [1], in test [2], in test [3], in test [4], in test [5] and in test [6] was > 100 µM in each case. For the same compound, the TGI in test [7], in [8], in test [9] and in test [10] was > 100 µM throughout.

For `CC(C)=CCC/C(C)=C/COc1c2ccoc2cc2oc(=O)ccc12`, the TGI in test [1] is > 100 µM; in [2], 50.2 µM; in test [3] it was > 100 µM; in test [4] it was > 100 µM; in test [5], 43.1 µM; in test [6], 82.6 µM. Further, the TGI in test [7] was > 100 µM; in [8], 87.6 µM; in test [9] it was > 100 µM; in test [10] it was > 100 µM.

For `C=CCN(CCNS(=O)(=O)c1ccc(C)cc1)S(=O)(=O)c1ccc(C)cc1`, the TGI in test [1], in test [2], in test [3], in test [4], in test [5] and in test [6] was > 100 µM in each case. For the same compound, the TGI in [7], in test [8], in [9] and in [10] was > 100 µM each time.

Turning to `CCOC(=O)C(NC(=O)c1ccccc1)(N1CCN(c2cc3c(cc2F)c(=O)c(C(=O)O)cn3CC)CC1)C(F)(F)F` (stereo not given), the TGI was > 100 µM in test [1]; 86.2 µM in [2]; > 100 µM in [3]; > 100 µM in test [4]; 62.5 µM in test [5]; 79.5 µM in test [6]. Besides, the TGI in test [7] was 47.3 µM; in test [8], 90.7 µM; in [9], 82.9 µM; in [10], > 100 µM.

On to `CCCCCCCCCCCC[C@@H](O)[C@H]1CCC([C@H](O)CCCCC(=O)CCCCCCCC2=C[C@H](C)OC2=O)O1` (stereo not given in full), for which the TGI in test [1] was > 32.8 µM; in test [2], > 50 µM; in [3] it was > 50 µM; in [4], > 50 µM; in [5], 10.1 µM; in [6], > 50 µM. The TGI in test [7], in test [8], in test [9] and in [10] was > 50 µM in each case.

Take `CCOC(=O)NC(OC)(C(F)(F)F)C(F)(F)F`: the TGI in [1], in test [2], in [3], in test [4], in [5] and in [6] was > 100 µM in each case. Also, the TGI in test [7], in test [8], in [9] and in test [10] was > 100 µM each time.

Take `OCCN(/N=C\c1ccc2ccccc2c1)C1=NCCN1`: the TGI in test [1] is > 100 µM; in [2], 71.4 µM; in test [3], > 100 µM; in [4], 55.6 µM; in test [5], 55.9 µM; in [6], > 100 µM. Also, the TGI in test [7] was > 100 µM; in test [8], 36.1 µM; in [9], 43.6 µM; in test [10], 64.4 µM.

In the case of `Cc1nc(C)c(N2CCNCC2)c(=O)[nH]1`, the TGI in [1], in test [2], in test [3], in test [4], in test [5] and in test [6] was > 100 µM throughout. For the same compound, the TGI in test [7], in test [8], in test [9] and in [10] was > 100 µM each time.

As for `O=c1[nH]cc(Cl)c(=O)[nH]1`, the TGI in test [1], in [2], in test [3], in test [4], in test [5] and in [6] was > 100 µM in each case. Further, the TGI in test [7], in test [8], in [9] and in [10] was > 100 µM in each case.

Take `CCOC(=O)Nc1ccc2c(c1)c(CCCCCCc1nc3ccccc3c3ccc(NC(=O)OCC)cc13)nc1ccccc12`: the TGI is > 100 µM in test [1]; > 100 µM in test [2]; 74.9 µM in [3]; > 100 µM in test [4]; > 100 µM in test [5]; 85.1 µM in test [6]. Moreover, the TGI in test [7] was determined as 61.3 µM; in [8], 81 µM; in test [9], 25 µM; in [10], 42.4 µM.
